Experimental data: patent US8901111B2, “Aryl-substituted heterocyclic urea modulators of fatty acid amide hydrolase” (Janssen Pharmaceutica NV, priority 2009, dated 2014)
Structures can show the parent of a compound that is named as a salt.

Experiments:
spasticity = settings: Baker 2001; cited from earlier work
[1] = system: acute thermal nociception; settings: rats; WO 02/087569; cited from earlier work
neuropathic pain = settings: rats; WO 02/087569; cited from earlier work
FAAH [2] = target: T1, FAAH (Homo sapiens, UniProt O00519); settings: reported; cited from earlier work
T1 sequence (O00519 1-579): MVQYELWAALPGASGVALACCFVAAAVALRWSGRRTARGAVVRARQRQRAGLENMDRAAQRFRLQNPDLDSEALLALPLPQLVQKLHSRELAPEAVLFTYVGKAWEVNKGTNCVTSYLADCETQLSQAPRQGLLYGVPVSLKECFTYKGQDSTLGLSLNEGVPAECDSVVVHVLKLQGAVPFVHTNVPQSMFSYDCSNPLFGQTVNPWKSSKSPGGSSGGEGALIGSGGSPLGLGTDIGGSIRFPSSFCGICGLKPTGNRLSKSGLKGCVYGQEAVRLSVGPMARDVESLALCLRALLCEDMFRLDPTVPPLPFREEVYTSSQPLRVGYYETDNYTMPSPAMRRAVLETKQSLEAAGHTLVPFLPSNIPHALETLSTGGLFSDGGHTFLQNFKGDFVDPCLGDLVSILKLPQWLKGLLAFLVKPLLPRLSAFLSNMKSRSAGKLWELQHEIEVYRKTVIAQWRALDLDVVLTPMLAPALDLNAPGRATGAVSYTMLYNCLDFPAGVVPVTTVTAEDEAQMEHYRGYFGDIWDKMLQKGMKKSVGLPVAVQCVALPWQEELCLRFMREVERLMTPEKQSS

thermal nociception [3] = settings: cited from earlier work
thermal nociception [4] = settings: rats; WO 04/033652; cited from earlier work
FAAH [5] = target: T1, FAAH; test: Assay Method 1: FAAH assay, 3H-anandamide hydrolysis in homogenate of cells transfected with human FAAH; assay type: biochemical; set-up: expressed in transfected cells; crude homogenate (T84 cell pellets named as alternative); settings: cell homogenate, 3H-AEA 80 nM, 1 h at rt, average of results
Summary of the method: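 Homogenates of SK-N-MC cells stably transfected with human FAAH (or T84 cells) in pH 9 Tris/EDTA/glycerol/Triton buffer, incubated with compound and 80 nM final ^3H-anandamide for 1 h at rt. Released ^3H-ethanolamine separated through activated charcoal by centrifugation and counted by scintillation.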

rat FAAH = target: T2, rat FAAH (Rattus norvegicus, UniProt P97612); test: Assay Method 2: FAAH assay, 3H-anandamide hydrolysis in homogenate of cells transfected with rat FAAH; assay type: biochemical; settings: cell homogenate, 3H-AEA 80 nM, 1 h at rt, average of results
T2 construct: expressed in transfected cells; crude homogenate
T2 sequence (P97612 1-579): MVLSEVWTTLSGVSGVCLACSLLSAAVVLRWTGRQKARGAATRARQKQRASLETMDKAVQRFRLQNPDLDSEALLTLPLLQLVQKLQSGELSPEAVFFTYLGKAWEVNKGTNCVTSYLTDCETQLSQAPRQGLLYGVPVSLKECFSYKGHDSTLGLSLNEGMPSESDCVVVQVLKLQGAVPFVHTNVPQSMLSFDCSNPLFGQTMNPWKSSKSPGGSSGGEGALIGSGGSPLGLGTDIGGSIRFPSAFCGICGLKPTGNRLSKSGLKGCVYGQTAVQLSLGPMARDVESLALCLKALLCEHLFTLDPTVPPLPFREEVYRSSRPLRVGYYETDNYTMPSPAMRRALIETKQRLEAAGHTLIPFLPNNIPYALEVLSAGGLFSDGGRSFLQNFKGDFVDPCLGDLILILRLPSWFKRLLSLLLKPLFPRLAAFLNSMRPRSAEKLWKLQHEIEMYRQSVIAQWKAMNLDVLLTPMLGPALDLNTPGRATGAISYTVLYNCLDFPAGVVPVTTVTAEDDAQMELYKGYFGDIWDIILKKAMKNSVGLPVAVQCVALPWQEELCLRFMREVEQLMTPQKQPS
Summary of the method: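 Homogenate of SK-N-MC cells stably transfected with rat FAAH, in pH 9 Tris/EDTA/glycerol/Triton buffer, incubated 1 h at rt with 80 nM final [1-3H-ethanolamine]anandamide. Released 3H-ethanolamine separated from substrate on activated charcoal filters by centrifugation and quantified by scintillation counting.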

[6] = Kathuria 2003; cited from earlier work
anxiety = settings: rats; Kathuria 2003; cited from earlier work

CCCCCCCCCCCCCCCCS(=O)(=O)F [AM374]
spasticity in CREAE mice (spasticity): significantly reduce spasticity

Cc1nc(-c2ccccc2)c(-c2ccccc2)n1CCCCCCNC(=O)Oc1ccccc1F [BMS-1]
analgesic effect in Hargraves test [1]: analgesic effect
analgesic effect in Chung spinal nerve ligation model (neuropathic pain): analgesic effect

O=C(CCCCCCc1ccccc1)c1ncc(-c2ccccn2)o1 [OL-135]
inhibition of FAAH (FAAH [2]): potent inhibitor
analgesic activity in hot plate test (thermal nociception [3]; rats, WO 04/033652): analgesic activity
analgesic activity in tail emersion test (thermal nociception [4]): analgesic activity

C#Cc1cccc(OCCC2CN(C(=O)Nc3cccnc3)C2)c1 [Example 37, 3-[2-(3-Ethynyl-phenoxy)-ethyl]-azetidine-1-carboxylic acid pyridin-3-ylamide, trifluoroacetate salt]
IC50 (FAAH [5]): 140 nM
IC50 (rat FAAH): 820 nM

O=C(Nc1cnc2ccccn12)N1CC(CCOc2cccc(Oc3ccc(Cl)cc3)c2)C1 [Example 42, 3-{2-[3-(4-Chloro-phenoxy)-phenoxy]-ethyl}-azetidine-1-carboxylic acid imidazo[1,2-a]pyridin-3-ylamide]
IC50 (FAAH [5]): 30 nM
IC50 (rat FAAH): 24 nM

O=C(Nc1noc2ccccc12)N1CCC(Cc2ccc3c(c2)OC(F)(F)O3)C1 (stereo not drawn) [Example 72, 3-(2,2-Difluoro-benzo[1,3]dioxol-5-ylmethyl)-pyrrolidine-1-carboxylic acid benzo[d]isoxazol-3-ylamide]
IC50 (FAAH [5]): > 10000 nM
IC50 (rat FAAH): 770 nM

O=C(Nc1cccnc1)N1CCC(Cc2cccc(Oc3ccc(F)cc3)c2)C1 (stereo not drawn) [Example 74, 3-[3-(4-Fluoro-phenoxy)-benzyl]-pyrrolidine-1-carboxylic acid pyridin-3-ylamide]
IC50 (FAAH [5]): 1200 nM
IC50 (rat FAAH): 1100 nM

O=C(Nc1ccc(-n2nccn2)nc1)N1CC(CCOc2cccc(Oc3ccc(Cl)cc3)c2)C1 [Example 39, 3-{2-[3-(4-Chloro-phenoxy)-phenoxy]-ethyl}-azetidine-1-carboxylic acid (6-[1,2,3]triazol-2-yl-pyridin-3-yl)-amide]
IC50 (FAAH [5]): 13 nM
IC50 (rat FAAH): 10 nM

NC(=O)c1cccc(-c2cccc(OC(=O)NC3CCCCC3)c2)c1 [URB-597]
analgesic efficacy in rat hot plate test (thermal nociception [3]; rat, Kathuria 2003): analgesic efficacy
analgesic efficacy in rat formalin test [6]: analgesic efficacy
efficacy in zero plus maze model of anxiety (anxiety): efficacy

O=C(Nc1cccnc1)N1CC(COc2ccc(-c3ccccc3)cc2)C1 [Example 18, 3-(Biphenyl-4-yloxymethyl)-azetidine-1-carboxylic acid pyridin-3-ylamide]
IC50 (FAAH [5]): > 10000 nM
IC50 (rat FAAH): > 10000 nM

O=C(Nc1cccnc1)N1CC(CCOc2cc(Cl)cc(Cl)c2)C1 [Example 47, 3-[2-(3,5-Dichloro-phenoxy)-ethyl]-azetidine-1-carboxylic acid pyridin-3-ylamide]
IC50 (FAAH [5]): 1000 nM
IC50 (rat FAAH): 250 nM

O=C(Nc1cccnc1)N1CC(COc2ccc(Br)cc2)C1 [Example 3, 3-(4-Bromo-phenoxymethyl)-azetidine-1-carboxylic acid pyridin-3-ylamide]
IC50 (FAAH [5]): > 10000 nM
IC50 (rat FAAH): > 10000 nM

O=C(Nc1cnccc1Cl)N1CCC(CCOc2ccc(Cl)c(Cl)c2)C1 (stereo not drawn) [Example 58, 3-[2-(3,4-Dichloro-phenoxy)-ethyl]-pyrrolidine-1-carboxylic acid (4-chloro-pyridin-3-yl)-amide]
IC50 (FAAH [5]): 300 nM
IC50 (rat FAAH): 700 nM

O=C(Nc1cccnc1)N1CC(COc2ccc3ncccc3c2)C1 [Example 15, 3-(Quinolin-6-yloxymethyl)-azetidine-1-carboxylic acid pyridin-3-ylamide, trifluoroacetate salt]
IC50 (FAAH [5]): > 10000 nM
IC50 (rat FAAH): > 10000 nM

O=C(Nc1cccnc1)N1CC(COc2ccc3c(c2)OCO3)C1 [Example 7, 3-(Benzo[1,3]dioxol-5-yloxymethyl)-azetidine-1-carboxylic acid pyridin-3-ylamide]
IC50 (FAAH [5]): > 10000 nM
IC50 (rat FAAH): > 10000 nM

O=C(Nc1cnccc1Cl)N1CCC(COc2ccc(Cl)c(Cl)c2)C1 (stereo not drawn) [Example 49, N-(4-Chloropyridin-3-yl)-3-[(3,4-dichlorophenoxy)methyl]pyrrolidine-1-carboxamide]
IC50 (FAAH [5]): 9 nM
IC50 (rat FAAH): 33 nM

O=C(Nc1cccnc1)N1CC(CCOc2cccc(Oc3ccccc3)c2)C1 [Example 32, 3-[2-(3-Phenoxy-phenoxy)-ethyl]-azetidine-1-carboxylic acid pyridin-3-ylamide]
IC50 (FAAH [5]): 360 nM
IC50 (rat FAAH): 430 nM

O=C(Nc1cccnc1)N1CC(COc2cccc(Oc3ccc(Cl)cc3)c2)C1 [Example 26, 3-[3-(4-Chloro-phenoxy)-phenoxymethyl]-azetidine-1-carboxylic acid pyridin-3-ylamide]
IC50 (FAAH [5]): 120 nM
IC50 (rat FAAH): 200 nM

O=C(Nc1cccnc1)N1CC(COc2ccc(Cl)c(Cl)c2)C1 [Example 21, 3-(3,4-Dichloro-phenoxymethyl)-azetidine-1-carboxylic acid pyridin-3-ylamide]
IC50 (FAAH [5]): 1000 nM
IC50 (rat FAAH): 530 nM

O=C(Nc1cccnc1)N1CC(CCOCc2ccc(Cl)c(Cl)c2)C1 [Example 68, 3-[2-(3,4-Dichloro-benzyloxy)-ethyl]-azetidine-1-carboxylic acid pyridin-3-ylamide, trifluoroacetate salt]
IC50 (FAAH [5]): 849 nM
IC50 (rat FAAH): 1230 nM

CS(=O)(=O)c1ccc(Oc2cccc(OCCC3CN(C(=O)Nc4cccnc4)C3)c2)cc1 [Example 27, 3-{2-[3-(4-Methanesulfonyl-phenoxy)-phenoxy]-ethyl}-azetidine-1-carboxylic acid pyridin-3-ylamide]
IC50 (FAAH [5]): 15 nM
IC50 (rat FAAH): 480 nM

O=C(Nc1noc2ccccc12)N1CC(CCOc2cccc(Oc3ccc(Cl)cc3)c2)C1 [Example 43, 3-{2-[3-(4-Chloro-phenoxy)-phenoxy]-ethyl}-azetidine-1-carboxylic acid benzo[d]isoxazol-3-ylamide]
IC50 (FAAH [5]): 4 nM
IC50 (rat FAAH): 1 nM

O=C(Nc1cccnc1)N1CC(COc2cccc(OC(F)(F)F)c2)C1 [Example 6, 3-(3-Trifluoromethoxy-phenoxymethyl)-azetidine-1-carboxylic acid pyridin-3-ylamide]
IC50 (FAAH [5]): 1100 nM
IC50 (rat FAAH): 175 nM

CCCCOc1cccc(OCC2CN(C(=O)Nc3cccnc3)C2)c1 [Example 12, 3-(3-Butoxy-phenoxymethyl)-azetidine-1-carboxylic acid pyridin-3-ylamide]
IC50 (FAAH [5]): 300 nM
IC50 (rat FAAH): > 10000 nM

O=C(Nc1cccnc1)N1CC(COc2ccc(OCc3ccccc3)cc2)C1 [Example 19, 3-(4-Benzyloxy-phenoxymethyl)-azetidine-1-carboxylic acid pyridin-3-ylamide]
IC50 (FAAH [5]): > 10000 nM
IC50 (rat FAAH): > 10000 nM
